Read-outs that look alike come from different tables or passages of the source.
Assays:
Assay in all cases: Kinase selectivity profiling
Type in all cases: biochemical
[1] = target: Aurora B (Homo sapiens, UniProt Q96GD4)
[2] = target: JAK2 (Homo sapiens, UniProt O60674)
From the text: (§1) Compound 28c was profiled against a panel of 110 kinases at the International Centre for Protein Kinase Profiling, Division of Signal Transduction Therapy, University of Dundee. Compound 40f was profiled against a panel of 50 kinases (MRC-PPU Express Screen) also at the International Centre for Protein Kinase Profiling.

[3] = target: NEK6 (Homo sapiens, UniProt Q9HC98)
From the text: as §1

[4] = target: PLK1 (Homo sapiens, UniProt P53350)
From the text: as §1

[5] = target: VEGFR (VEGFR1) (Homo sapiens, UniProt P17948); conditions: read-out: % activity remaining, VEG2FR
From the text: as §1

[6] = target: Lck (Homo sapiens, UniProt P06239)
From the text: as §1

[7] = target: PKCa (Homo sapiens, UniProt P17252)
From the text: as §1

[8] = target: IGF-1R (Homo sapiens, UniProt P08069); conditions: read-out: % activity remaining, IGF21R
From the text: as §1

[9] = target: TrkA (Homo sapiens, UniProt P04629)
From the text: as §1

[10] = target: PRK2 (Homo sapiens, UniProt Q16513)
From the text: as §1

[11] = target: MSK1 (Homo sapiens, UniProt O75582)
From the text: as §1

[12] = target: LKB1 (Homo sapiens, UniProt Q15831)
From the text: as §1

[13] = target: CK2 (Homo sapiens, UniProt P68400)
From the text: as §1

[14] = target: p38a MAPK (Homo sapiens, UniProt Q16539)
From the text: as §1

[15] = target: SGK1 (Homo sapiens, UniProt O00141)
From the text: as §1

[16] = target: HIPK2 (Homo sapiens, UniProt Q9H2X6)
From the text: as §1

[17] = target: MKK1 (Homo sapiens, UniProt Q02750)
From the text: as §1

[18] = target: Src (Homo sapiens, UniProt P12931)
From the text: as §1

[19] = target: CHK2 (Homo sapiens, UniProt O96017)
From the text: as §1

[20] = target: TTK (Homo sapiens, UniProt P33981)
From the text: as §1

[21] = target: HER4 (Homo sapiens, UniProt Q15303)
From the text: as §1

[22] = target: PKD1 (Homo sapiens, UniProt Q15139)
From the text: as §1

[23] = target: MLK3 (Homo sapiens, UniProt Q16584)
From the text: as §1

[24] = target: SRPK1 (Homo sapiens, UniProt Q96SB4)
From the text: as §1

[25] = target: DYRK1A (Homo sapiens, UniProt Q13627)
From the text: as §1

[26] = target: SmMLCK (Homo sapiens, UniProt Q15746)
From the text: as §1

[27] = target: JNK1 (Homo sapiens, UniProt P45983)
From the text: as §1

[28] = target: CAMKKb (Homo sapiens, UniProt Q96RR4)
From the text: as §1

[29] = target: PKBa (Homo sapiens, UniProt P31749, S473D)
From the text: as §1

[30] = target: TAK1 (Homo sapiens, UniProt O43318)
From the text: as §1

[31] = target: BTK (Homo sapiens, UniProt Q06187)
From the text: as §1

[32] = target: EPH-A2 (Homo sapiens, UniProt P29317); conditions: read-out: % activity remaining, EPH2A2
From the text: as §1

[33] = target: MARK3 (Homo sapiens, UniProt P27448)
From the text: as §1

[34] = target: PAK4 (Homo sapiens, UniProt O96013)
From the text: as §1

[35] = target: RIPK2 (Homo sapiens, UniProt O43353)
From the text: as §1

[36] = target: RSK1 (Homo sapiens, UniProt Q15418)
From the text: as §1

[37] = target: ROCK 2 (Rattus norvegicus, UniProt Q62868)
From the text: as §1

[38] = target: IRAK4 (Homo sapiens, UniProt Q9NWZ3)
From the text: as §1

[39] = target: CAMK1 (Homo sapiens, UniProt Q14012)
From the text: as §1

[40] = target: MST2 (Homo sapiens, UniProt Q13188)
From the text: as §1

[41] = target: TBK1 (Homo sapiens, UniProt Q9UHD2)
From the text: as §1

[42] = target: S6K1 (Homo sapiens, UniProt P23443)
From the text: as §1

[43] = 50-kinase panel (MRC-PPU Express Screen)

p38a MAPK, sequence (Q16539 whole entry): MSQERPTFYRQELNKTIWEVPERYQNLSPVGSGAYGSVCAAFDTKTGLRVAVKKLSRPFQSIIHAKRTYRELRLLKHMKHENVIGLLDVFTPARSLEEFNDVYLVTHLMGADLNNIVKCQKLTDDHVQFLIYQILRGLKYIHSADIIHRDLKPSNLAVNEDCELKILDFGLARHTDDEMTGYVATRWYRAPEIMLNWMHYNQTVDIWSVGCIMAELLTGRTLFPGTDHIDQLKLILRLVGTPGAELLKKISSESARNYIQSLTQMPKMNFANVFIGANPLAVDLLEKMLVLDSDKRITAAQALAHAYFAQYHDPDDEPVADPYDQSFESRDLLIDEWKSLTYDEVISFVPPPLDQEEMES
PAK4, sequence (O96013 whole entry): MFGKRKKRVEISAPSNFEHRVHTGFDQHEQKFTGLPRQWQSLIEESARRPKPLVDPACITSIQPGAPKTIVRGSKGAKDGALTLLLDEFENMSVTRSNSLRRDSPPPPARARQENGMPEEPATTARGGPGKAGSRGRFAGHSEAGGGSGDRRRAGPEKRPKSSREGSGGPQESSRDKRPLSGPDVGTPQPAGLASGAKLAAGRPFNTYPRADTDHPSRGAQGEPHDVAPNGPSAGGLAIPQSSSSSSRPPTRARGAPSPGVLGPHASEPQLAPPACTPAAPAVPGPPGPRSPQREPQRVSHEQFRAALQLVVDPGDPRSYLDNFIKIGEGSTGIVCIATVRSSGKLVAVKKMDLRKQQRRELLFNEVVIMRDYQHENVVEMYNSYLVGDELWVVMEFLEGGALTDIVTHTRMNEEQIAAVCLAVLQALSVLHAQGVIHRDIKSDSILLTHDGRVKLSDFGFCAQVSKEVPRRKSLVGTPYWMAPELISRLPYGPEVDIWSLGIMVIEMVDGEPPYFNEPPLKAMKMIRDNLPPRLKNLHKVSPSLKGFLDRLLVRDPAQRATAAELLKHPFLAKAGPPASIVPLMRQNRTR
PKD1, sequence (Q15139 whole entry): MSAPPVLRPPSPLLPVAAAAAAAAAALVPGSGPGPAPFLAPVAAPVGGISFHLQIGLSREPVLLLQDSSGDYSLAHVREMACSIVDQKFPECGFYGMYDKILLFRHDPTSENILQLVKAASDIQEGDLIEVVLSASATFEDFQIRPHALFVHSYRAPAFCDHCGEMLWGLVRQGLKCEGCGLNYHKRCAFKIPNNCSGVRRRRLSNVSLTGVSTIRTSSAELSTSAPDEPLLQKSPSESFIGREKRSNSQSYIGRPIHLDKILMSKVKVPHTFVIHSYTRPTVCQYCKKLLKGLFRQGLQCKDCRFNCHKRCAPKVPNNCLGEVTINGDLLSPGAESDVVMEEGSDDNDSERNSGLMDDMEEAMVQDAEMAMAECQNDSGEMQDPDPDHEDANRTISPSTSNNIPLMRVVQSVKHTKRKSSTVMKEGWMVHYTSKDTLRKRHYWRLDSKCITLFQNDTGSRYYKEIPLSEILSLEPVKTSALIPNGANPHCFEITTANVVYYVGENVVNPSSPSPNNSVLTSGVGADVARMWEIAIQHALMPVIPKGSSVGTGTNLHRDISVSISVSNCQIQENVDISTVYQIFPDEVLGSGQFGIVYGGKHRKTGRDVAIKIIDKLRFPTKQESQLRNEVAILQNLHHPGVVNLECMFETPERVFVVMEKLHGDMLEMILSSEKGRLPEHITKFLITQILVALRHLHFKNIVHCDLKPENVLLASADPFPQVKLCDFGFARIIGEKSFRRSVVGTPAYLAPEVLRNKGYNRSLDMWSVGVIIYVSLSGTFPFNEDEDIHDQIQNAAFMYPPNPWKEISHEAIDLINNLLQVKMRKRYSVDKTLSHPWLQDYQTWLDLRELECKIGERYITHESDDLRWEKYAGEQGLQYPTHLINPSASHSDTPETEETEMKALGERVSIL
HIPK2, sequence (Q9H2X6 whole entry): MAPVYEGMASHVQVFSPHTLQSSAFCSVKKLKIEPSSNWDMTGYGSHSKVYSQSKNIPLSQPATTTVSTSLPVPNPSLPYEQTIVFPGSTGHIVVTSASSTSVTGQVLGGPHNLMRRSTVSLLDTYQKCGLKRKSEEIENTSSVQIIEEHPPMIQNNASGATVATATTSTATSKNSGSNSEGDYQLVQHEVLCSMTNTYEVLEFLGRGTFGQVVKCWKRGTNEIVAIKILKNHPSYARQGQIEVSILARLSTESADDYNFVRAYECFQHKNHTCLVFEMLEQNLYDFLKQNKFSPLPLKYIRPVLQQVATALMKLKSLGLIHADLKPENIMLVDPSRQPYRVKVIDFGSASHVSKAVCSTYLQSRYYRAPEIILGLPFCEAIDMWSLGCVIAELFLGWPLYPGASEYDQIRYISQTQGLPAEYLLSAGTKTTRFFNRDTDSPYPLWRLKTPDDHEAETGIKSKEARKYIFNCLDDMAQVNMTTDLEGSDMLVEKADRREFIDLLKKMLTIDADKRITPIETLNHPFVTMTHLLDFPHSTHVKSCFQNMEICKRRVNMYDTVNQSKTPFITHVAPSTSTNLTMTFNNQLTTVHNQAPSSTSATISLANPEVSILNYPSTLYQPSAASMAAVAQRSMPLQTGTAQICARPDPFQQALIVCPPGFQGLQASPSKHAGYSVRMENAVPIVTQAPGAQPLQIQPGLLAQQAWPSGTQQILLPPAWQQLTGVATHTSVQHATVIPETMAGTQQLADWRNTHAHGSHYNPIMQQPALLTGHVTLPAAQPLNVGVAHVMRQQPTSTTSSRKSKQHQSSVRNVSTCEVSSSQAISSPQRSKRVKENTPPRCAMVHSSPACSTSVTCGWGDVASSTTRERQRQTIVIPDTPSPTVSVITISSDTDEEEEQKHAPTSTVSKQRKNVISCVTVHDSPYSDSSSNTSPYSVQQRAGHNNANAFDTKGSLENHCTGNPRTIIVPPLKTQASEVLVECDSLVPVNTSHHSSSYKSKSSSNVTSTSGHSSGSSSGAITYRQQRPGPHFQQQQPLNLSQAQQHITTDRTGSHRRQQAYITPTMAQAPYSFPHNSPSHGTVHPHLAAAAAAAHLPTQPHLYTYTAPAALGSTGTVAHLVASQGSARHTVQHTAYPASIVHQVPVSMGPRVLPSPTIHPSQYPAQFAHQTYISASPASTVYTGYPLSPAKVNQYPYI
SmMLCK, sequence (Q15746 923-1914): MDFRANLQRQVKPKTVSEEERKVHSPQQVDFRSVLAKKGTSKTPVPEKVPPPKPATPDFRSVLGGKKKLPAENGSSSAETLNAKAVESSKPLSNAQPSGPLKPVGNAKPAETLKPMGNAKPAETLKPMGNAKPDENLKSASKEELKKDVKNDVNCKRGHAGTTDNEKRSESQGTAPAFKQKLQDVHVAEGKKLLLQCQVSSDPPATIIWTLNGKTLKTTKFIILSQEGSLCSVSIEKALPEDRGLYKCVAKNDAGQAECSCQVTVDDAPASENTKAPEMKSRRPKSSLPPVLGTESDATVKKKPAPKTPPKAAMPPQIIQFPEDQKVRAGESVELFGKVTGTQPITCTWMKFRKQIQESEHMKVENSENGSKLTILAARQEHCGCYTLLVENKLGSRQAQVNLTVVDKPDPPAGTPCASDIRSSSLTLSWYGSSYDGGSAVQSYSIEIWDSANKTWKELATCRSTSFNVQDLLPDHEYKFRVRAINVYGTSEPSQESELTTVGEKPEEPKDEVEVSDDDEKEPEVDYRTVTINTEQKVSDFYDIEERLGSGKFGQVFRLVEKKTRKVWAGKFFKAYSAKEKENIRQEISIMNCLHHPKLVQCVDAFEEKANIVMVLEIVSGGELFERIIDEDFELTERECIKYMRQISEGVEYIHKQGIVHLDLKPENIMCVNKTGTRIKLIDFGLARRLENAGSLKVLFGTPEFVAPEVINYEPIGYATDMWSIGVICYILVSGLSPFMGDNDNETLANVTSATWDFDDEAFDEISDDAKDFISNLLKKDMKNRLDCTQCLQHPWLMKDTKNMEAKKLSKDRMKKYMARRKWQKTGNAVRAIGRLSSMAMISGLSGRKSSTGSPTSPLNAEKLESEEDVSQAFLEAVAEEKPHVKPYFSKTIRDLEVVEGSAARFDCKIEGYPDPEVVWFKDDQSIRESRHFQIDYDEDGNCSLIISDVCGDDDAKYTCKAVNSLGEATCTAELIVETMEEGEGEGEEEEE
TAK1, sequence (O43318 1-303 limits assumed): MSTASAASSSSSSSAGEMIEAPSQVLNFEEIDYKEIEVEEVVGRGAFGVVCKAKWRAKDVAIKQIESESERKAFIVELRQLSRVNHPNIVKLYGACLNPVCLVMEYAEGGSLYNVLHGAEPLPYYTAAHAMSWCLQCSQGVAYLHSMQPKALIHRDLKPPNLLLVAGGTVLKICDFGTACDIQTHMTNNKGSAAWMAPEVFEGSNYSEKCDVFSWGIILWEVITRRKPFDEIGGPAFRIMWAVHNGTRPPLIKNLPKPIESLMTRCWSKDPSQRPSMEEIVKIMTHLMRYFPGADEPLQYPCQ
CHK2, sequence (O96017 whole entry): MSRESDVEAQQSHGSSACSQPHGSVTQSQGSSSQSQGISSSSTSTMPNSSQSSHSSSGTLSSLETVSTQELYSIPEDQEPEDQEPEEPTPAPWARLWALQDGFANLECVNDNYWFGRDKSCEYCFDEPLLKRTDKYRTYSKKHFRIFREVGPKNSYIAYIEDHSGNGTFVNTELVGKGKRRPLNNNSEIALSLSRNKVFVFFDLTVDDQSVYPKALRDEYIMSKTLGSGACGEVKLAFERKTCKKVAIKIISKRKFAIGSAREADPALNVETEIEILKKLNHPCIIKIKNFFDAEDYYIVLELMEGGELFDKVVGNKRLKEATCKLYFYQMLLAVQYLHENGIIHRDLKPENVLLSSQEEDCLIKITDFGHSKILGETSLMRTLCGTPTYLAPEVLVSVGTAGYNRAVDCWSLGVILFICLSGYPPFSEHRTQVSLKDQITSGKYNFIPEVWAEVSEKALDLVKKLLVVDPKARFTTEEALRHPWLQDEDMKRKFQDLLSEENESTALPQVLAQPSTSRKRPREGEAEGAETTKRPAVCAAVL

Cc1nn(C)cc1-c1nc2c(Oc3ccc(C(=O)Nc4ccccc4)cc3)c(Cl)cnc2[nH]1 [compound 28c, 4-((6-Chloro-2-(1,3-dimethyl-1H-pyrazol-4-yl)-3H-imidazo[4,5-b]pyridin-7-yl)oxy)-N-phenylbenzamide]
remaining activity at 1 µM ([1]; 110-kinase panel): 25% | remaining activity at 1 µM ([2]; 110-kinase panel): 63% | remaining activity at 1 µM ([3]; 110-kinase panel): 129% | remaining activity at 1 µM ([4]; 110-kinase panel): 107% | remaining activity at 1 µM ([5]; 110-kinase panel): 17% | remaining activity at 1 µM ([6]; 110-kinase panel): 110% | remaining activity at 1 µM ([7]; 110-kinase panel): 110% | remaining activity at 1 µM ([8]; 110-kinase panel): 98% | remaining activity at 1 µM ([9]; 110-kinase panel): 100% | remaining activity at 1 µM ([10]; 110-kinase panel): 81% | remaining activity at 1 µM ([11]; 110-kinase panel): 89% | remaining activity at 1 µM ([12]; 110-kinase panel): 97% | remaining activity at 1 µM ([13]; 110-kinase panel): 108% | remaining activity at 1 µM ([14]; 110-kinase panel): 91% | remaining activity at 1 µM ([15]; 110-kinase panel): 99% | remaining activity at 1 µM ([16]; 110-kinase panel): 83% | remaining activity at 1 µM ([17]; 110-kinase panel): 77% | remaining activity at 1 µM ([18]; 110-kinase panel): 80% | remaining activity at 1 µM ([19]; 110-kinase panel): 111% | remaining activity at 1 µM ([20]; 110-kinase panel): 102% | remaining activity at 1 µM ([21]; 110-kinase panel): 95% | remaining activity at 1 µM ([22]; 110-kinase panel): 109% | remaining activity at 1 µM ([23]; 110-kinase panel): 46% | remaining activity at 1 µM ([24]; 110-kinase panel): 89% | remaining activity at 1 µM ([25]; 110-kinase panel): 105% | remaining activity at 1 µM ([26]; 110-kinase panel): 91% | remaining activity at 1 µM ([27]; 110-kinase panel): 92% | remaining activity at 1 µM ([28]; 110-kinase panel): 86% | remaining activity at 1 µM ([29]; 110-kinase panel): 105% | remaining activity at 1 µM ([30]; 110-kinase panel): 31% | remaining activity at 1 µM ([31]; 110-kinase panel): 110% | remaining activity at 1 µM ([32]; 110-kinase panel): 138% | remaining activity at 1 µM ([33]; 110-kinase panel): 83% | remaining activity at 1 µM ([34]; 110-kinase panel): 82% | remaining activity at 1 µM ([35]; 110-kinase panel): 98% | remaining activity at 1 µM ([36]; 110-kinase panel): 88% | remaining activity at 1 µM ([37]; 110-kinase panel): 80% | remaining activity at 1 µM ([38]; 110-kinase panel): 95% | remaining activity at 1 µM ([39]; 110-kinase panel): 100% | remaining activity at 1 µM ([40]; 110-kinase panel): 106% | remaining activity at 1 µM ([41]; 110-kinase panel): 86% | remaining activity at 1 µM ([42]; 110-kinase panel): 81%

Cc1nn(C)cc1-c1nc2c(Oc3ccc(C(=O)NC4CCC4)cc3)c(Cl)cnc2[nH]1 [compound 40f, 4-((6-Chloro-2-(1,3-dimethyl-1H-pyrazol-4-yl)-3H-imidazo[4,5-b]pyridin-7-yl)oxy)-N-cyclobutylbenzamide]
remaining activity at 1 µM [1, 43]: 66% | remaining activity at 1 µM [2, 43]: 75% | remaining activity at 1 µM [3, 43]: 90% | remaining activity at 1 µM [4, 43]: 104% | remaining activity at 1 µM [5, 43]: 7% | remaining activity at 1 µM [6, 43]: 95% | remaining activity at 1 µM [7, 43]: 96% | remaining activity at 1 µM [8, 43]: 78% | remaining activity at 1 µM [9, 43]: 58% | remaining activity at 1 µM [10, 43]: 92% | remaining activity at 1 µM [11, 43]: 94% | remaining activity at 1 µM [12, 43]: 108% | remaining activity at 1 µM [13, 43]: 93% | remaining activity at 1 µM [14, 43]: 107% | remaining activity at 1 µM [15, 43]: 85% | remaining activity at 1 µM [16, 43]: 98% | remaining activity at 1 µM [17, 43]: 94% | remaining activity at 1 µM [18, 43]: 86% | remaining activity at 1 µM [19, 43]: 85% | remaining activity at 1 µM [20, 43]: 74% | remaining activity at 1 µM [21, 43]: 92% | remaining activity at 1 µM [22, 43]: 113% | remaining activity at 1 µM [23, 43]: 31% | remaining activity at 1 µM [24, 43]: 95% | remaining activity at 1 µM [25, 43]: 104% | remaining activity at 1 µM [26, 43]: 87% | remaining activity at 1 µM [27, 43]: 100% | remaining activity at 1 µM [28, 43]: 86% | remaining activity at 1 µM [29, 43]: 96% | remaining activity at 1 µM [30, 43]: 59% | remaining activity at 1 µM [31, 43]: 101% | remaining activity at 1 µM [32, 43]: 88% | remaining activity at 1 µM [33, 43]: 107% | remaining activity at 1 µM [34, 43]: 89% | remaining activity at 1 µM [35, 43]: 107% | remaining activity at 1 µM [36, 43]: 90% | remaining activity at 1 µM [37, 43]: 73% | remaining activity at 1 µM [38, 43]: 89% | remaining activity at 1 µM [39, 43]: 85% | remaining activity at 1 µM [40, 43]: 141% | remaining activity at 1 µM [41, 43]: 93% | remaining activity at 1 µM [42, 43]: 81%

From article PMC3848336, “Aurora Isoform Selectivity: Design and Synthesis of Imidazo[4,5-b]pyridine Derivatives as Highly Selective Inhibitors of Aurora-A Kinase in Cells” (Journal of Medicinal Chemistry, 2013)
